Laboratory results from PubChem BioAssay (NCI).
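GI50: concentration for 50% inhibition of growth. The concentration for full growth arrest is given as TGI.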

What was measured:
Test in all cases: inhibition of tumour cell growth, NCI panel, 384-well format
[1] = system: 786-0 renal
[2] = system: A498 renal
[3] = system: A549 NSCLC
[4] = system: ACHN renal
[5] = system: BT-549 breast
[6] = system: CAKI-1 renal
[7] = system: CCRF-CEM leukemia
[8] = system: COLO 205 colon
[9] = system: DU-145 prostate
[10] = system: EKVX NSCLC
[11] = system: HCC-2998 colon
[12] = system: HCT-116 colon
[13] = system: HCT-15 colon
[14] = system: HOP-62 NSCLC
[15] = system: HOP-92 NSCLC
[16] = system: HS 578T breast
[17] = system: HT29 colon
[18] = system: IGROV1 ovarian
[19] = system: K-562 leukemia
[20] = system: KM12 colon
[21] = system: LOX IMVI melanoma
[22] = system: M14 melanoma
[23] = system: MALME-3M melanoma
[24] = system: MCF7 breast
[25] = system: MDA-MB-231 breast
[26] = system: MDA-MB-435 melanoma
[27] = system: MDA-MB-468 breast
[28] = system: MOLT-4 leukemia
[29] = system: NCI-H226 lung
[30] = system: NCI-H23 lung
[31] = system: NCI-H322M lung
[32] = system: NCI-H460 NSCLC
[33] = system: NCI-H522 lung
[34] = system: NCI/ADR-RES ovarian
[35] = system: OVCAR-3 ovarian
[36] = system: OVCAR-4 ovarian
[37] = system: OVCAR-5 ovarian
[38] = system: OVCAR-8 ovarian
[39] = system: PC-3 prostate
[40] = system: RPMI-8226 leukemia
[41] = system: RXF 393 renal
[42] = system: SF-268 CNS
[43] = system: SF-295 CNS
[44] = system: SF-539 CNS
[45] = system: SK-MEL-28 melanoma
[46] = system: SK-MEL-5 melanoma
[47] = system: SK-OV-3 ovarian
[48] = system: SN12C renal
[49] = system: SNB-19 CNS
[50] = system: SNB-75 CNS
[51] = system: SW-620 colon
[52] = system: T-47D breast
[53] = system: TK-10 renal
[54] = system: U251 glioblastoma
[55] = system: UACC-257 melanoma
[56] = system: UACC-62 melanoma
[57] = system: UO-31 renal

**Q.** `Cn1c(=O)c(F)c(Nc2ccc(I)cc2F)c2c(=O)n(C[C@@H](O)CO)cnc21` was tested. Which GI50 [1] did it give?
**A.** 1.62 µM

**Q.** What about the TGI [1] of the same molecule?
**A.** 17.9 µM

**Q.** What about the GI50 [2] of the same molecule?
**A.** 0.268 µM

**Q.** And the TGI [2]?
**A.** 12.6 µM

**Q.** What about the GI50 [3] of the same molecule?
**A.** < 0.01 µM

**Q.** What about the TGI [3] of the same molecule?
**A.** 9.91 µM

**Q.** And the GI50 [4]?
**A.** 1.09 µM

**Q.** And the TGI [4]?
**A.** 26.9 µM

**Q.** And the GI50 [5]?
**A.** 2.39 µM

**Q.** What about the TGI [5] of the same molecule?
**A.** 23.5 µM

**Q.** And the GI50 [6]?
**A.** 0.0133 µM

**Q.** What about the TGI [6] of the same molecule?
**A.** 19.2 µM

**Q.** What about the GI50 [7] of the same molecule?
**A.** 10.6 µM

**Q.** And the TGI [7]?
**A.** 22.8 µM

**Q.** And the GI50 [8]?
**A.** < 0.01 µM

**Q.** What about the TGI [8] of the same molecule?
**A.** < 0.01 µM

**Q.** And the GI50 [9]?
**A.** 1.99 µM

**Q.** And the TGI [9]?
**A.** 36.7 µM

**Q.** And the GI50 [10]?
**A.** 2.08 µM

**Q.** What about the TGI [10] of the same molecule?
**A.** 25.5 µM

**Q.** What about the GI50 [11] of the same molecule?
**A.** < 0.01 µM

**Q.** And the TGI [11]?
**A.** 0.0128 µM

**Q.** What about the GI50 [12] of the same molecule?
**A.** < 0.01 µM

**Q.** And the TGI [12]?
**A.** 0.164 µM

**Q.** And the GI50 [13]?
**A.** 0.466 µM

**Q.** What about the TGI [13] of the same molecule?
**A.** 19.6 µM

**Q.** What about the GI50 [14] of the same molecule?
**A.** < 0.01 µM

**Q.** And the TGI [14]?
**A.** 25.2 µM

**Q.** What about the GI50 [15] of the same molecule?
**A.** < 0.01 µM

**Q.** What about the TGI [15] of the same molecule?
**A.** 0.179 µM

**Q.** And the GI50 [16]?
**A.** 0.184 µM

**Q.** And the TGI [16]?
**A.** 11 µM

**Q.** What about the GI50 [17] of the same molecule?
**A.** < 0.01 µM

**Q.** What about the TGI [17] of the same molecule?
**A.** 11.6 µM

**Q.** And the GI50 [18]?
**A.** < 0.01 µM

**Q.** And the TGI [18]?
**A.** 1.11 µM

**Q.** What about the GI50 [19] of the same molecule?
**A.** 0.011 µM

**Q.** And the TGI [19]?
**A.** 15.5 µM

**Q.** And the GI50 [20]?
**A.** < 0.01 µM

**Q.** And the TGI [20]?
**A.** 13.6 µM

**Q.** And the GI50 [21]?
**A.** < 0.01 µM

**Q.** What about the TGI [21] of the same molecule?
**A.** 0.137 µM

**Q.** What about the GI50 [22] of the same molecule?
**A.** < 0.01 µM

**Q.** And the TGI [22]?
**A.** < 0.01 µM

**Q.** What about the GI50 [23] of the same molecule?
**A.** < 0.01 µM

**Q.** And the TGI [23]?
**A.** < 0.01 µM

**Q.** What about the GI50 [24] of the same molecule?
**A.** 12.4 µM

**Q.** What about the TGI [24] of the same molecule?
**A.** 29 µM

**Q.** And the GI50 [25]?
**A.** < 0.01 µM

**Q.** What about the TGI [25] of the same molecule?
**A.** 1.11 µM

**Q.** What about the GI50 [26] of the same molecule?
**A.** < 0.01 µM

**Q.** What about the TGI [26] of the same molecule?
**A.** 19.9 µM

**Q.** What about the GI50 [27] of the same molecule?
**A.** 0.387 µM

**Q.** What about the TGI [27] of the same molecule?
**A.** 1.62 µM

**Q.** And the GI50 [28]?
**A.** 4.01 µM

**Q.** What about the TGI [28] of the same molecule?
**A.** 16.3 µM

**Q.** And the GI50 [29]?
**A.** < 0.01 µM

**Q.** And the TGI [29]?
**A.** 5.39 µM

**Q.** And the GI50 [30]?
**A.** < 0.01 µM

**Q.** What about the TGI [30] of the same molecule?
**A.** 0.0296 µM

**Q.** What about the GI50 [31] of the same molecule?
**A.** 0.0185 µM

**Q.** What about the TGI [31] of the same molecule?
**A.** 16.6 µM

**Q.** What about the GI50 [32] of the same molecule?
**A.** < 0.01 µM

**Q.** What about the TGI [32] of the same molecule?
**A.** 30.6 µM

**Q.** What about the GI50 [33] of the same molecule?
**A.** 0.929 µM

**Q.** What about the TGI [33] of the same molecule?
**A.** 22.7 µM

**Q.** And the GI50 [34]?
**A.** 12.7 µM

**Q.** And the TGI [34]?
**A.** 44.6 µM

**Q.** And the GI50 [35]?
**A.** 4.32 µM

**Q.** And the TGI [35]?
**A.** 19.2 µM

**Q.** What about the GI50 [36] of the same molecule?
**A.** 15.6 µM

**Q.** And the TGI [36]?
**A.** 55.8 µM

**Q.** And the GI50 [37]?
**A.** < 0.01 µM

**Q.** And the TGI [37]?
**A.** 16.9 µM

**Q.** What about the GI50 [38] of the same molecule?
**A.** 3.68 µM

**Q.** What about the TGI [38] of the same molecule?
**A.** 18.6 µM

**Q.** What about the GI50 [39] of the same molecule?
**A.** 18.5 µM

**Q.** And the TGI [39]?
**A.** 53.2 µM

**Q.** And the GI50 [40]?
**A.** 11.6 µM

**Q.** What about the TGI [40] of the same molecule?
**A.** 24.8 µM

**Q.** And the GI50 [41]?
**A.** 0.191 µM

**Q.** What about the TGI [41] of the same molecule?
**A.** 10.4 µM

**Q.** And the GI50 [42]?
**A.** < 0.01 µM

**Q.** What about the TGI [42] of the same molecule?
**A.** 7.63 µM

**Q.** And the GI50 [43]?
**A.** 11.5 µM

**Q.** What about the TGI [43] of the same molecule?
**A.** 25.4 µM

**Q.** What about the GI50 [44] of the same molecule?
**A.** 0.215 µM

**Q.** What about the TGI [44] of the same molecule?
**A.** 10.6 µM

**Q.** What about the GI50 [45] of the same molecule?
**A.** < 0.01 µM

**Q.** What about the TGI [45] of the same molecule?
**A.** < 0.01 µM

**Q.** What about the GI50 [46] of the same molecule?
**A.** < 0.01 µM

**Q.** And the TGI [46]?
**A.** 10.7 µM

**Q.** What about the GI50 [47] of the same molecule?
**A.** 3.34 µM

**Q.** What about the TGI [47] of the same molecule?
**A.** 21.5 µM

**Q.** And the GI50 [48]?
**A.** < 0.01 µM

**Q.** What about the TGI [48] of the same molecule?
**A.** 17.2 µM

**Q.** And the GI50 [49]?
**A.** 0.783 µM

**Q.** What about the TGI [49] of the same molecule?
**A.** 34.5 µM

**Q.** What about the GI50 [50] of the same molecule?
**A.** 0.32 µM

**Q.** What about the TGI [50] of the same molecule?
**A.** 17.5 µM

**Q.** And the GI50 [51]?
**A.** < 0.01 µM

**Q.** And the TGI [51]?
**A.** 11.5 µM

**Q.** And the GI50 [52]?
**A.** 1.53 µM

**Q.** What about the TGI [52] of the same molecule?
**A.** 22.6 µM

**Q.** And the GI50 [53]?
**A.** 1.14 µM

**Q.** And the TGI [53]?
**A.** 16.9 µM

**Q.** And the GI50 [54]?
**A.** 0.0603 µM

**Q.** What about the TGI [54] of the same molecule?
**A.** 9.75 µM

**Q.** And the GI50 [55]?
**A.** < 0.01 µM

**Q.** And the TGI [55]?
**A.** < 0.01 µM

**Q.** What about the GI50 [56] of the same molecule?
**A.** < 0.01 µM

**Q.** And the TGI [56]?
**A.** < 0.01 µM

**Q.** What about the GI50 [57] of the same molecule?
**A.** 0.181 µM

**Q.** What about the TGI [57] of the same molecule?
**A.** 1.77 µM
